Experimental data: the NIST ThermoML archive (doi:10.1016/j.jct.2007.11.009)

Tests used:
[1] = Liquid, Vibrating tube method
[2] = refractive index (Na D-line) (dimensionless); details: 298.15 K; 101.33 kPa; Liquid; Standard Abbe refractometry

c1ccccc1 [benzene]
mass density [kg/m3], [1]
Details | 298.15 K | 308.15 K | 318.15 K | 328.15 K
100 kPa | 873.5 | 862.9 | 852.3 | 841.5
2130 kPa | 875.1 | 864.7 | 854.2 | 843.6
4150 kPa | 876.7 | 866.4 | 856.1 | 845.6
6180 kPa | 878.4 | 868.2 | 857.9 | 847.5
8210 kPa | 879.9 | 869.9 | 859.7 | 849.5
10230 kPa | 881.5 | 871.6 | 861.5 | 851.3
11250 kPa | 882.3 | 872.4 | 862.4 | 852.3
12260 kPa | 883.1 | 873.2 | 863.2 | 853.2
14290 kPa | 884.6 | 874.8 | 865 | 855
16310 kPa | 886.1 | 876.4 | 866.6 | 856.8
18340 kPa | 887.6 | 878 | 868.3 | 858.6
20370 kPa | 889.1 | 879.5 | 869.9 | 860.3
22390 kPa | 890.5 | 881.1 | 871.6 | 862
24420 kPa | 892 | 882.6 | 873.2 | 863.7
26450 kPa | 893.4 | 884 | 874.7 | 865.3
28470 kPa | 894.7 | 885.5 | 876.2 | 866.9
29490 kPa | 895.4 | 886.2 | 877 | 867.8
30500 kPa | 896.1 | 886.9 | 877.8 | 868.6
32530 kPa | 897.5 | 888.4 | 879.2 | 870.1
34550 kPa | 898.8 | 889.7 | 880.7 | 871.7
36580 kPa | 900.1 | 891.1 | 882.1 | 873.1
38600 kPa | 901.4 | 892.5 | 883.6 | 874.7
39620 kPa | 902 | 893.2 | 884.3 | 875.4

Details | refractive index
[2] | 1.4979

CCCCCCCC [octane]
mass density [kg/m3], [1]
Details | 298.15 K | 308.15 K | 318.15 K | 328.15 K
100 kPa | 698.7 | 690.8 | 682.8 | 674.5
2130 kPa | 700.4 | 692.6 | 684.7 | 676.6
4150 kPa | 702.2 | 694.4 | 686.7 | 678.7
6180 kPa | 703.8 | 696.2 | 688.6 | 680.7
8210 kPa | 705.4 | 698 | 690.4 | 682.6
10230 kPa | 707 | 699.7 | 692.2 | 684.6
11250 kPa | 707.8 | 700.5 | 693.1 | 685.5
12260 kPa | 708.6 | 701.3 | 694 | 686.4
14290 kPa | 710.1 | 703 | 695.7 | 688.3
16310 kPa | 711.7 | 704.5 | 697.4 | 690.1
18340 kPa | 713.1 | 706.1 | 699.1 | 691.8
20370 kPa | 714.6 | 707.6 | 700.7 | 693.6
22390 kPa | 715.9 | 709.1 | 702.3 | 695.2
24420 kPa | 717.4 | 710.6 | 703.9 | 696.9
26450 kPa | 718.8 | 712 | 705.4 | 698.5
28470 kPa | 720.1 | 713.4 | 706.9 | 700
29490 kPa | 720.8 | 714.1 | 707.6 | 700.8
30500 kPa | 721.4 | 714.8 | 708.3 | 701.6
32530 kPa | 722.7 | 716.2 | 709.7 | 703
34550 kPa | 724 | 717.5 | 711.2 | 704.5
36580 kPa | 725.3 | 718.8 | 712.5 | 706
38600 kPa | 726.5 | 720.2 | 713.9 | 707.4
39620 kPa | 727.1 | 720.8 | 714.6 | 708.1

Details | refractive index
[2] | 1.395
